The text below walks through data of ChEMBL document CHEMBL2074131, “Inhibition of P-glycoprotein function by XR9576 in a solid tumour model can restore anticancer drug efficacy” (Eur J Cancer, 2004).

Each structure is given as a SMILES string.

The target of the data set is ATP-dependent translocase ABCB1 (Homo sapiens, UniProt P08183). Kind of data set: TP_TRANSPORTER: drug resistance (vinblastine) in NCI/ADRRes cells. The data set is classed as functional, cell-based.
ATP-dependent translocase ABCB1, sequence (P08183 whole entry): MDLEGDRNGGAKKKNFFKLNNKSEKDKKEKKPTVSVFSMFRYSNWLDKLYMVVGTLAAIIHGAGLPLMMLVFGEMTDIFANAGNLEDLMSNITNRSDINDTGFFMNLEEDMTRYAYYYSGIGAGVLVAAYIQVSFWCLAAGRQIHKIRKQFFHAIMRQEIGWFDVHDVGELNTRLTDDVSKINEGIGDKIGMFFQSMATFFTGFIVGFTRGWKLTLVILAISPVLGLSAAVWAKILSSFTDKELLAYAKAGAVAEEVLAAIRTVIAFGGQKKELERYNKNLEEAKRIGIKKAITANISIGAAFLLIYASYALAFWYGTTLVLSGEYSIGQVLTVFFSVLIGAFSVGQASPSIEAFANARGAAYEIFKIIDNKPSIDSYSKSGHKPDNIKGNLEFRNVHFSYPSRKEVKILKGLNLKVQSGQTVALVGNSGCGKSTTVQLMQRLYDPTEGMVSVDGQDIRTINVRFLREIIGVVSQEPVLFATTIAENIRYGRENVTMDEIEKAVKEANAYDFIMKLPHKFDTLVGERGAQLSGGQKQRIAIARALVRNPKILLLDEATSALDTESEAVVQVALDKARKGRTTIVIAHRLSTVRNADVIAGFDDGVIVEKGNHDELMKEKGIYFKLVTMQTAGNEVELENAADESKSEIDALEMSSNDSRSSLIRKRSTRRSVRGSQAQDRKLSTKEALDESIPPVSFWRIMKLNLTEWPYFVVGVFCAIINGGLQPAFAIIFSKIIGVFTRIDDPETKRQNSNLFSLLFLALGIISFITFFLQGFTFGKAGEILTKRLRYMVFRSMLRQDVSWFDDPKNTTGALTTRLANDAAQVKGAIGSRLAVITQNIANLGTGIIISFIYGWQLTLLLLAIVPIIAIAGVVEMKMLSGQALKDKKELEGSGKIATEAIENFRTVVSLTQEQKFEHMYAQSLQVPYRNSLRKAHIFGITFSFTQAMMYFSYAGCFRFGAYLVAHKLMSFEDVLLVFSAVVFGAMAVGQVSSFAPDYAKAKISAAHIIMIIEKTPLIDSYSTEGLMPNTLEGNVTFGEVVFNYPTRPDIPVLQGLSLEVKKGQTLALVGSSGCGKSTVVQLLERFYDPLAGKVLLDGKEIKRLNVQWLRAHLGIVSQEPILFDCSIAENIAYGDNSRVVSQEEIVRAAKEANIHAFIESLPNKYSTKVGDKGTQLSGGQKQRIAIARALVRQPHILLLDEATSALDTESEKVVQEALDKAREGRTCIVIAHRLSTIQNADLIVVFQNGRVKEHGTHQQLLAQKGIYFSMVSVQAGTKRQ

Take `COc1cc2c(cc1OC)CN(CCc1ccc(NC(=O)c3cc(OC)c(OC)cc3NC(=O)c3cnc4ccccc4c3)cc1)CC2` [TARIQUIDAR]: the Activity entry is “inhibitor [+]”.
